Test results reported in ChEMBL document CHEMBL2413072, “Synthesis and in vitro anticancer studies of novel C-2 arylidene congeners of lantadenes” (2013).

Assays:
Type in all cases: functional
PC-3 [1] = assay: Growth inhibition of human PC3 cells assessed as cell growth at 10^-7 M by sulforhodamine B assay; conditions: read-out: Activity
SR = assay: Growth inhibition of human SR cells by sulforhodamine B assay
MOLT-4 = assay: Growth inhibition of human MOLT4 cells assessed as cell growth at 10^-4 M by sulforhodamine B assay; conditions: read-out: Activity
OVCAR-8 = assay: Growth inhibition of human OVCAR8 cells assessed as cell growth at 10^-4 M by sulforhodamine B assay; conditions: read-out: Activity
M14 = assay: Growth inhibition of human M14 cells assessed as cell growth at 10^-8 M by sulforhodamine B assay; conditions: read-out: Activity
NCI-H226 = assay: Growth inhibition of human NCI-H226 cells by sulforhodamine B assay
CAKI-1 = assay: Growth inhibition of human CAKI-1 cells assessed as cell growth at 10^-6 M by sulforhodamine B assay; conditions: read-out: Activity
[2] = Growth inhibition of human Hs 578T cells assessed as cell growth at 10^-7 M by sulforhodamine B assay; conditions: read-out: Activity
HCT-15 = assay: Growth inhibition of human HCT15 cells by sulforhodamine B assay
KM12 = assay: Growth inhibition of human KM12 cells assessed as cell growth at 10^-8 M by sulforhodamine B assay; conditions: read-out: Activity
NCI-H460 = assay: Growth inhibition of human NCI-H460 cells assessed as cell growth at 10^-8 M by sulforhodamine B assay; conditions: read-out: Activity
SNB-19 = assay: Growth inhibition of human SNB19 cells assessed as cell growth at 10^-4 M by sulforhodamine B assay; conditions: read-out: Activity
NCI-H23 = assay: Growth inhibition of human NCI-H23 cells assessed as cell growth at 10^-6 M by sulforhodamine B assay; conditions: read-out: Activity
COLO 205 = assay: Growth inhibition of human COLO205 cells by sulforhodamine B assay
MCF7 = assay: Growth inhibition of human MCF7 cells assessed as cell growth at 10^-8 M by sulforhodamine B assay; conditions: read-out: Activity
U-251 = assay: Growth inhibition of human U251 cells by sulforhodamine B assay
RPMI-8226 = assay: Growth inhibition of human RPMI8226 cells assessed as cell growth at 10^-6 M by sulforhodamine B assay; conditions: read-out: Activity
HOP-62 = assay: Growth inhibition of human HOP62 cells assessed as cell growth at 10^-8 M by sulforhodamine B assay; conditions: read-out: Activity
PC-3 [3] = assay: Growth inhibition of human PC3 cells by sulforhodamine B assay
[4] = read-out: LC50 (the source's name)
[5] = read-out: pLC50 (the source's name) (converted)

C/C=C(/C)C(=O)O[C@@H]1CC(C)(C)C[C@H]2C3=CC[C@@H]4[C@@]5(C)CCC(=O)C(C)(C)[C@@H]5CC[C@@]4(C)[C@]3(C)CC[C@@]12C(=O)O [LANTADENE A]
growth at 0.1 µM (PC-3 [1]): 83% | GI50 (SR; read-out: GI50): 3 µM | CC50 (SR; [4]): > 100 µM | TGI (SR; read-out: TGI): > 100 µM | GI50 (SR; read-out: pGI50 (converted)): 3.02 µM | CC50 (SR; [5]): > 100 µM | TGI (SR; read-out: pTGI (converted)): > 100 µM | growth at 100 µM (MOLT-4): 2% | growth at 100 µM (OVCAR-8): 24% | growth at 0.01 µM (M14): 96% | GI50 (NCI-H226; read-out: GI50): 4.71 µM | LC50 (NCI-H226; read-out: LC50): > 100 µM | TGI (NCI-H226; read-out: TGI): > 100 µM | GI50 (NCI-H226; read-out: pGI50 (converted)): 4.68 µM | LC50 (NCI-H226; read-out: pLC50 (converted)): > 100 µM | TGI (NCI-H226; read-out: pTGI (converted)): > 100 µM | growth at 1 µM (CAKI-1): 88% | growth at 0.1 µM [2]: 93% | GI50 (HCT-15; read-out: GI50): 3.17 µM | LC50 (50% lethal concentration) (HCT-15; read-out: LC50): > 100 µM | TGI (HCT-15; read-out: TGI): > 100 µM | GI50 (HCT-15; read-out: pGI50 (converted)): 3.16 µM | LC50 (50% lethal concentration) (HCT-15; read-out: pLC50 (converted)): > 100 µM | TGI (HCT-15; read-out: pTGI (converted)): > 100 µM | growth at 0.01 µM (KM12): 103% | growth at 0.01 µM (NCI-H460): 104% | growth at 100 µM (SNB-19): 23% | growth at 1 µM (NCI-H23): 97% | GI50 (COLO 205; read-out: GI50): 2.64 µM | LC50 (COLO 205; read-out: LC50): 89.7 µM | TGI (COLO 205; read-out: TGI): 6.8 µM | GI50 (COLO 205; read-out: pGI50 (converted)): 2.63 µM | LC50 (COLO 205; read-out: pLC50 (converted)): 89.1 µM | TGI (COLO 205; read-out: pTGI (converted)): 6.76 µM | growth at 0.01 µM (MCF7): 94% | GI50 (U-251; read-out: GI50): 3.99 µM | CC50 (U-251; [4]): > 100 µM | TGI (U-251; read-out: TGI): > 100 µM | GI50 (U-251; read-out: pGI50 (converted)): 3.98 µM | CC50 (U-251; [5]): > 100 µM | TGI (U-251; read-out: pTGI (converted)): > 100 µM | growth at 1 µM (RPMI-8226): 64% | growth at 0.01 µM (HOP-62): 92% | GI50 (PC-3 [3]; read-out: GI50): 2.53 µM | CC50 (PC-3 [3]; [4]): > 100 µM | TGI (PC-3 [3]; read-out: TGI): > 100 µM
